Ends that are not written are not given here.
Key:
[1] = test system: isolated precultured rat pancreatic islets; conditions: in the presence of glucose, dose-dependent; cited from earlier work
healthy volunteers = conditions: peptide infused into healthy volunteers; cited from earlier work
[2] = test system: patients with NIDDM and secondary failure to sulfonylurea treatment; assay: Example 2: basal state and standard lunch study in patients with secondary failure to sulfonylurea treatment; format: in vivo, human; conditions: for Insulinogenic index (integrated insulin/integrated glucose response): after ingestion of the meal; for Insulinogenic index (integrated insulin/integrated glucose response) / Blood glucose: GLP-1(7-36)amide 0.75 pmol/kg/min, glibenclamide 1 mg i.v., 8 NIDDM patients with sulfonylurea failure
[3] = test system: diabetic as well as nondiabetic subjects; conditions: cited from earlier work
[4] = test system: insulin treated obese NIDDM patients; assay: Example 1: standard test meal study, meal-related C-peptide response, glucagon response and IMIR; format: in vivo, human; conditions: GLP-1(7-36)amide 0.75 pmol/kg/min infusion for 210 min, glibenclamide 1 mg i.v., 6 insulin treated obese NIDDM patients
[5] = basal state, 45 minutes after start of administration

Compound: GLP-1(1-36)amide: amide of a fragment of GLP-1 comprising amino acid residues 1 to 36 (HDEFERHAEGTFTSDVSSYLEGQAAKEFIAWLVKGR-NH2; UniProt P01275 92-127, looked up, fragment)
- insulin release [1]: stimulates insulin release

Compound: GLP-1(7-36)amide: Peptide of formula I, His-Ala-Glu-Gly-Thr-...-Lys-Gly-Arg-X with X = NH2; fragment of glucagon-like peptide-1
- plasma insulin (healthy volunteers): significant rise in plasma insulin
- Insulinogenic index (integrated insulin/integrated glucose response) [2]: 21.0 ± 7.2,
- Blood glucose [2, 5]: 5.1 ± 0.4 mmol/L

Compound: GLP-1(7-37): Peptide of formula I with X = Gly-OH; residues 7 to 37 of GLP-1 (HAEGTFTSDVSSYLEGQAAKEFIAWLVKGRG-OH; UniProt P01275 98-128, looked up, fragment)
- insulinotropic action [3]: has been demonstrated

Compound: COc1ccc(Cl)cc1C(=O)NCCc1ccc(S(=O)(=O)NC(=O)NC2CCCCC2)cc1 [glibenclamide]
- Glucagon response [4]: no significant effect
- Insulinogenic index (integrated insulin/integrated glucose response) [2]: 10.6 ± 2.8,
- effect on blood glucose and C-peptide levels (in words) [2, 5]: no significant effect on its own
- Blood glucose [2, 5]: 6.0 ± 0.3 mmol/L
